Results reported in patent US12527977B2, “Combined neuromodulation techniques” (GE Precision Healthcare LLC, priority 2021, dated 2026).

How the values were obtained:
[1] = test system: Zucker diabetic fatty (ZDF) rat model; assay: Chronic non-fasted blood glucose monitoring in ZDF rats, drug combined with pFUS ultrasound stimulation; format: in vivo
Excerpt: The following relates to the diabetic animal model used and the method of ultrasound neuromodulation. • Animal Model of Type 2 Diabetes • Zucker diabetic fatty (ZDF) rat model Adult male ZDF rats (Charles River, Kingston, NY USA) were ordered for arrival prior to 8 weeks of age. All animals were maintained on a high caloric rodent chow (Purina 5008), provided, with water, provided ad libitum. […] All procedures performed in accordance with the National Institutes of Health (NIH) Guidelines under protocols approved by the Institutional Animal Care and Use Committee (IACUC) of GE Global Research. ZDF animals were acclimated by daily handling to prevent stress-induced changes in circulating glucose. […] All rats were anesthetized at 1-4% isoflurane at 1 L/min O2. Rats were then placed on a water circulating warming pad, with a rectal thermometer probe to maintain body temperature. The abdominal area was completely shaved and the hair fully removed with Nair to allow for later stimulation of nerve plexus located in either the hepatic or GI systems. […] These locations were then marked with a permanent marker and a ultrasound stimulation probe was placed on the target area. The prototype pFUS device then delivered 3 minutes of stimulation (1.1 MHz, 150 burst cycles, 500 us burst period) Blood glucose levels of the rats were monitored on a daily basis for chronic studies and at 5-minute intervals for acute and OGTT studies. In chronic studies additional blood samples were collected on a weekly basis for the analysis of circulating markers. A final terminal blood sample was collected at the time of euthanization and used for the evaluation of circulating insulin levels. For the prototype pFUS device, stimulus (1.1 MHZ, 200 mV per pulse, 150 burst cycles, 500 us burst period) was applied to each region for 3 minutes per target. For example, pFUS was initially applied to the hepatic portal region for 3 minutes. […] There was an about 5 minute delay period in between stimulation of the first and second, or second and third anatomical target sites. Blood samples obtained from the tail vein were used to assess daily glucose (for chronic studies) and 5-minute glucose intervals (for acute studies) using a Freestyle Freedom Lite (Abbott Diabetes Inc., Alameda, CA, US). The Freestyle Freedom Light meter using a small blood 15 volume (0.3 uL) and as such no additional fluids were needed to recover total volume following blood sampling. Combination of pharmaceutical intervention and pFUS therapy was tested to determine the effects of dual therapies on therapeutic window as well as duration of efficacy. […] This dosing regimen (timing) is identical to that used in humans with dosing to occur prior to both morning and evening mealtimes. […]

[2] = test system: Zucker diabetic fatty (ZDF) rat model; details: previously shown treatment, cited from earlier work
[3] = low dose metformin alone cohort, FIG. 9 data 304

| Compound | remission after ultrasound cessation ([1]; low dose metformin added to dual-site stimulation (7 days ultrasound, then stopped), FIG. 9 data 302) | blood glucose [1, 3] | effectiveness (absolute decrease in blood glucose or length of time spent below 200 mg/dL) versus liraglutide alone [1, 3] | blood glucose reduction duration versus single site plus liraglutide cohort ([1]; low dose metformin plus single site (hepatoportal plexus) stimulus, FIG. 9 data 306) | effect in ZDF animals far along in disease progression ([2]; FGF1 icv, animals with >300 mg/dL average glucose) | remission in the ZDF model ([2]; FGF1 injection into the intracerebroventricular (icv) space) [week] |
| --- | --- | --- | --- | --- | --- | --- |
| CN(C)C(=N)N=C(N)N [Metformin] | did not result in extended remission | temporary drop below 200 mg/dL | not as effective as the liraglutide alone cohort | not as effective | – | – |
| FGF1: FGF1 injected into the intracerebroventricular space; previously reported treatment | – | – | – | – | failed to work | 4 |
